Laboratory results taken from the supplement of paper PMC10307832.

Columns and labels:
Test in all cases: relative viability (nuclei count vs DMSO), 5 days (fraction); higher = more cells survive
[1] = compound: C#Cc1cccc(Nc2ncnc3cc(OC)c(OCCCCCCC(=O)NO)cc23)c1 [CUDC-101] + Nc1ncn([C@H]2C[C@H](O)[C@@H](CO)O2)c(=O)n1 [Decitabine] (partner 2 µM)
Method in brief: (§1)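 After 5 days of treatment, lung cancer cells in 1536-well plates were fixed and stained in a single step (final 0.05% Triton X-100, 1% formaldehyde, 1 ug/ml Hoechst) and their nuclei counted on 4× images. Treatment had been applied by pin tool the day after seeding as one drug alone or as a fixed anchor-drug dose with five library-drug doses (not always all listed) in √10 steps. Relative viability is the nuclei count of treated wells divided by that of vehicle wells, and values are medians of duplicate plates.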

[2] = compound: C1=CC=C2C(=C1)N=C(S2)C(C#N)C3=NC(=NC=C3)NCCC4=CN=CC=C4 + O=C(c1cc(Cc2n[nH]c(=O)c3ccccc23)ccc1F)N1CCN(C(=O)C2CC2)CC1 [Olaparib] (partner 8 µM)
Method in brief: as §1

[3] = compound: COc1cc2/c(=N/c3ccc(Br)cc3F)nc[nH]c2cc1OCC1CCN(C)CC1 [Vandetanib] + COc1cccc2cc(-c3nc([C@H]4CC[C@H](C(=O)O)CC4)n4ncnc(N)c34)[nH]c12 [OSI-027] (partner 0.5 µM)
Method in brief: as §1

[4] = compound: C1=CC=C2C(=C1)N=C(S2)C(C#N)C3=NC(=NC=C3)NCCC4=CN=CC=C4 + CS(=O)(=O)CCNCc1ccc(-c2ccc3ncnc(Nc4ccc(OCc5cccc(F)c5)c(Cl)c4)c3c2)o1 [Lapatinib] (partner 2 µM)
Method in brief: as §1

Row | Cell Line | relative viability ([1]; first compound 0.01 µM) | relative viability ([1]; first compound 0.03162 µM) | relative viability ([1]; first compound 0.1 µM) | relative viability ([1]; first compound 0.3162 µM) | relative viability ([1]; first compound 1 µM) | relative viability ([2]; first compound 0.005 µM) | relative viability ([2]; first compound 0.01581 µM) | relative viability ([2]; first compound 0.05 µM) | relative viability ([2]; first compound 0.1581 µM) | relative viability ([2]; first compound 0.5 µM) | relative viability ([3]; first compound 0.02 µM) | relative viability ([3]; first compound 0.06325 µM) | relative viability ([3]; first compound 0.2 µM) | relative viability ([3]; first compound 0.6325 µM) | relative viability ([3]; first compound 2 µM) | relative viability ([4]; first compound 0.005 µM) | relative viability ([4]; first compound 0.01581 µM) | relative viability ([4]; first compound 0.05 µM) | relative viability ([4]; first compound 0.1581 µM) | relative viability ([4]; first compound 0.5 µM)
1 | HCC-78 | 0.738 | 0.591 | 0.719 | 0.624 | 0.433 | 0.852 | 0.935 | 0.816 | 0.936 | 0.756 | 0.374 | 0.39 | 0.42 | 0.364 | 0.361 | 1.07 | 0.664 | 0.57 | 1.01 | 0.896
2 | HCC-366 | 0.335 | 0.33 | 0.339 | 0.383 | 0.354 | 0.189 | 0.449 | 0.349 | 0.372 | 0.354 | 0.807 | 0.876 | 0.978 | 0.824 | 0.948 | 0.941 | 1.15 | 0.921 | 1.18 | 1.07
3 | HCC-827 | 0.309 | 0.248 | 0.177 | 0.149 | 0.155 | 0.568 | 0.616 | 0.728 | 0.657 | 0.566 | 0.895 | 0.752 | 0.707 | 0.164 | 0.149 | 0.242 | 0.183 | 0.259 | 0.188 | 0.208
4 | HOP-62 | 0.288 | 0.238 | 0.224 | 0.22 | 0.229 | 0.741 | 0.368 | 0.408 | 0.265 | 0.191 | 0.789 | 0.739 | 0.815 | 0.903 | 0.846 | 0.874 | 1 | 0.893 | 1.12 | 0.903
5 | IA-LM |  |  |  |  |  |  | 0.883 | 0.804 | 0.836 | 0.763 |  |  |  |  |  |  | 1.02 | 0.824 | 0.888 | 0.673
6 | LC-2-ad | 0.872 | 0.774 | 0.829 | 0.717 | 0.621 | 0.699 | 0.701 | 0.762 | 0.729 | 0.673 | 0.848 | 0.761 | 0.777 | 0.675 | 0.446 | 0.648 | 0.976 | 0.946 | 1 | 0.634
7 | LCLC-97TM1 | 0.286 | 0.24 | 0.227 | 0.228 | 0.191 | 0.289 | 0.362 | 0.354 | 0.592 | 0.362 | 0.669 | 0.324 | 0.514 | 0.394 | 0.481 | 0.971 | 0.803 | 0.897 | 0.954 | 0.674
8 | LCLC-103H | 0.692 | 0.695 | 0.722 | 0.657 | 0.633 | 0.628 | 0.829 | 0.764 | 0.849 | 0.649 | 0.428 | 0.44 | 0.438 | 0.423 | 0.448 |  |  |  |  | 
9 | LK-2 | 0.262 | 0.329 | 0.384 | 0.2 | 0.125 | 0.645 | 0.804 | 0.63 | 0.754 | 0.766 | 0.243 | 0.213 | 0.203 | 0.197 | 0.227 |  | 0.931 | 0.917 | 1.15 | 0.819
10 | LOU-NH91 | 0.804 | 0.706 | 0.76 | 0.807 | 0.711 | 0.914 | 0.914 | 0.826 | 0.888 | 0.801 | 0.76 | 0.604 | 0.599 | 0.502 | 0.515 | 0.799 | 0.758 | 0.688 | 0.739 | 0.724
11 | NCI-H441 | 0.303 | 0.305 | 0.262 | 0.242 | 0.236 | 0.423 | 0.643 | 0.544 | 0.683 | 0.455 | 0.551 | 0.619 | 0.713 | 0.643 | 0.566 |  |  |  |  | 
12 | NCI-H522 | 0.58 | 0.622 | 0.761 | 0.616 | 0.677 | 0.66 | 0.638 | 0.634 | 0.533 | 0.751 | 0.77 | 0.727 | 0.772 | 0.674 | 0.61 |  |  |  |  | 
13 | NCI-H1299 |  |  |  |  |  | 0.966 | 1.05 | 1.01 | 1.05 | 0.894 |  |  |  |  |  | 0.941 | 0.991 | 0.946 | 0.998 | 0.918
14 | NCI-H1563 |  |  |  |  |  |  |  |  |  |  | 0.79 | 0.8 | 0.743 | 0.76 | 0.734 | 0.857 | 0.871 | 0.775 | 0.938 | 0.916
15 | NCI-H1623 |  |  |  |  |  |  |  |  |  |  | 0.479 | 0.439 | 0.454 | 0.398 | 0.455 |  |  |  |  | 
16 | NCI-H1648 | 0.548 | 0.519 | 0.439 | 0.451 | 0.324 |  | 1.02 |  | 0.977 | 1.09 | 0.253 | 0.276 | 0.28 | 0.258 | 0.252 |  |  |  |  | 
17 | NCI-H1703 |  |  |  |  |  | 0.357 | 0.353 |  | 0.377 | 0.66 |  |  |  |  |  | 0.869 | 1.11 | 0.851 | 1.1 | 1.19
18 | NCI-H2228 |  |  |  |  |  | 0.481 | 0.738 | 0.489 | 0.729 | 0.527 | 0.651 | 0.42 | 0.744 | 0.422 | 0.631 | 0.725 | 1.01 | 1.18 | 1.46 | 0.924
19 | NCI-H2342 | 0.737 | 0.718 | 0.739 | 0.777 | 0.709 | 0.536 | 0.454 | 0.495 | 0.442 | 0.45 | 0.616 | 0.597 | 0.644 | 0.669 | 0.591 |  |  |  |  | 
20 | SW 900 | 0.428 | 0.405 | 0.426 | 0.397 | 0.33 | 0.65 | 0.755 | 0.838 | 0.938 | 0.87 | 0.456 | 0.486 | 0.315 | 0.622 | 0.713 |  |  |  |  | 
